{"source": "paper PMC4740378", "about": "“Export of malaria proteins requires co-translational processing of the PEXEL motif independent of phosphatidylinositol-3-phosphate binding” (Nature Communications, 2016)", "target": "T1, p40PX (GST-p40PX, aa 1-148) (Homo sapiens, UniProt Q15080)", "T1 construct": "gene NCF4; PX domain, residues 1-148, N-terminal GST fusion (pGEX; glutathione-purified, detected with anti-GST), E. coli", "T1 sequence (Q15080 1-148)": "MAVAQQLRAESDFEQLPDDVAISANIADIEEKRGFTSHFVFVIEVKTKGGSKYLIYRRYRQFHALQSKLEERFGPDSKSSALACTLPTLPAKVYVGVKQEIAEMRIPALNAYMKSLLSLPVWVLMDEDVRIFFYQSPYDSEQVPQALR", "test": "SPR, Biacore […], L1 chip with liposomes", "type": "binding", "conditions": "PC:PE:PI(3)P 75:20:5 liposomes, PC/PE control subtracted; 150 mM NaCl, 50 mM HEPES pH 7.5, 25 °C; own-purified protein", "data": [{"smiles": "CCCCCCCCCCCCCCCC(=O)OC[C@H](COP(=O)(O)O[C@@H]1[C@H](O)[C@H](OP(=O)(O)O)[C@@H](O)[C@H](O)[C@H]1O)OC(=O)CCCCCCCCCCCCCCC", "note": "[PI(3)P-diC16, D-myo-phosphatidylinositol 3-phosphate di-C16]", "values": [{"measurement": "Kd", "value": 195, "unit": "nM"}]}]}
